# Assay results: patent US20160355483A1, “COMPOUND BINDING TO PPARG BUT NOT ACTING AS PROMOTER AND PHARMACEUTICAL COMPOSITION FOR TREATING PPARG-RELATED DISEASES CONTAINING SAME AS ACTIVE INGREDIENT” (Hyundai Pharm Co., Ltd., priority 2014, published 2016)
# Target: T1, PPARG (peroxisome proliferator activated receptor-gamma), GST-PPARG-LBD (Homo sapiens, UniProt P37231)
# T1 construct: 15 μL of 5 nM GST-PPARG-LBD and 5 nM Tb-GST-antibody were added; purchased Invitrogen PV4894
# T1 sequence (P37231 238-503 limits assumed): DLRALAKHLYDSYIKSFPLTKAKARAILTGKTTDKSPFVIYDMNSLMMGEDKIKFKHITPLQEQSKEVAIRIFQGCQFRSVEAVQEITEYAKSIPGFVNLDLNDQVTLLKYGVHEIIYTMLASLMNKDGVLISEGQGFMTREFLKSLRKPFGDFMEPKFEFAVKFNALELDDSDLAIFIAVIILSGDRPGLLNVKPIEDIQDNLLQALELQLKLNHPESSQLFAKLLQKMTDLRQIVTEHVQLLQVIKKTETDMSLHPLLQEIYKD
# Assay: LanthaScreen TR-FRET PPARG Competitive Binding Assay
# Set-up: key: “+” indicates the degree of the binding activity, and as the number of “+” increases, the binding activity is stronger; ++: “+” indicates the degree of the binding activity, and as the number of “+” increases, the binding activity is stronger; +++: “+” indicates the degree of the binding activity, and as the number of “+” increases, the binding activity is stronger; ++++: “+” indicates the degree of the binding activity, and as the number of “+” increases, the binding activity is stronger
# Conditions: degree of binding activity
# Procedure, shortened: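 GST-tagged human PPARG LBD in a TR-FRET competitive binding kit, 1 h at room temperature. Read-out is the 518/488 nm emission ratio (340 nm excitation); activity = 100% − compound ratio/vehicle ratio, compared with rosiglitazone.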
row,SMILES,Binding assay (1 μLM)
1,"Cc1ccc([C@H](C)NC(=O)c2ccc3c(c2)CCCN3Cc2cc(-c3ccccc3C(=O)O)ccc2F)cc1F [Example 138, (S)-4′-fluoro-3′-((6-((1-(3-fluoro-4-methylphenyl)ethyl)carbamoyl)-3,4-dihydroquinoline-1(2H)-yl)methyl)-[1,1′-biphenyl]-2-caboxylic acid]",++++
2,"C[C@H](NC(=O)c1ccc2c(c1)CCCN2Cc1cc(-c2ccccc2C(N)=O)ccc1F)c1ccc2ccccc2c1 [Example 140, (S)-1-((2′-carbamoyl-4-fluoro-[1,1′-biphenyl]-3-yl)methyl)-N-(1-(naphthalene-2-yl)ethyl)-1,2,3,4-tetrahydroquinoline-6-carboxamide]",++++
3,"Cc1ccc([C@H](C)NC(=O)c2ccc3c(c2)CCCN3Cc2cc(-c3ccccc3C(N)=O)ccc2F)cc1F [Example 141, (S)-1-((2′-carbamoyl-4-fluoro-[1,1′-biphenyl]-3-yl)methyl)-N-(1-(3-fluoro-4-methylphenyl)ethyl)-1,2,3,4-tetrahydroquinoline-6-carboxamide]",+++
4,"Cc1ccc([C@H](C)NC(=O)c2ccc3c(c2)OCCN3Cc2ccccc2-c2ccc(C(=O)O)cc2)cc1F [Example 145, (S)-2′-((7-((1-(3-fluoro-4-methylphenyl)ethyl)carbamoyl)-2H-benzo[b][1,4]oxazine-4(3H)-yl)methyl)-[1,1′-biphenyl]-4-carboxylic acid]",++
5,"C[C@H](NC(=O)c1ccc2c(c1)OCCN2Cc1ccccc1-c1ccc(C(=O)O)cc1)c1ccc([N+](=O)[O-])cc1 [Example 146, (S)-2′-((7-((1-(4-nitrophenyl)ethyl)carbamoyl)-2H-benzo[b][1,4]oxazine-4 (3H)-yl)methyl)-[1,1′-biphenyl]-4-carboxylic acid]",+
6,"Cc1ccc([C@H](C)NC(=O)c2ccc3c(c2)CCCN3Cc2ccccc2-c2ccc(C(=O)O)cc2)cc1F [Example 154, (S)-2′-((6-((1-(3-fluoro-4-methylphenyl)ethyl)carbamoyl)-3,4-dihydroquinoline-1(2H)-yl)methyl)-[1,1′-biphenyl]-4-carboxylic acid]",+
7,"Cc1ccc([C@H](C)NC(=O)c2ccc3c(c2)CCCN3Cc2ccccc2-c2ccc(C(N)=O)cc2)cc1F [Example 158, (S)-1-((4′-carbamoyl-[1,1′-biphenyl]-2-yl)methyl)-N-(1-(3-fluoro-4-methylphenyl)ethyl)-1,2,3,4-tetrahydroquinoline-6-carboxamide]",+
8,"C[C@H](NC(=O)c1ccc2c(c1)CCCN2Cc1ccccc1-c1ccc(C(N)=O)cc1)c1ccc([N+](=O)[O-])cc1 [Example 159, (S)-1-((4′-carbamoyl-[1,1′-biphenyl]-2-yl)methyl)-N-(1-(4-nitrophenyl)ethyl)-1,2,3,4-tetrahydroquinoline-6-carboxamide]",+
9,"C[C@H](NC(=O)c1ccc2c(c1)CCCN2Cc1ccccc1-c1ccc(C(N)=O)cc1)c1ccc2ccccc2c1 [Example 160, (S)-1-((4′-carbamoyl-[1,1′-biphenyl]-2-yl)methyl)-N-(1-(naphthalene-2-yl)ethyl)-1,2,3,4-tetrahydroquinoline-6-carboxamide]",++
10,"C[C@H](NC(=O)c1ccc2c(c1)CCCN2Cc1ccccc1-c1ccc(C(N)=O)cc1)c1ccc(C#N)cc1 [Example 161, (S)-1-((4′-carbamoyl-[1,1′-biphenyl]-2-yl)methyl)-N-(1-(4-cyanophenyl)ethyl)-1,2,3,4-tetrahydroquinoline-6-carboxamide]",++
11,"C[C@H](NC(=O)c1ccc2c(c1)OCCN2Cc1ccc(-c2ccccc2C(=O)O)c(F)c1)c1ccccc1 [Example 162, (S)-2′-fluoro-4′-((7-((1-phenylethyl)carbamoyl)-2H-benzo[b][1,4]oxazine-4(3H)-yl)methyl)-[1,1′-biphenyl]-2-carboxylic acid]",+++
12,"C[C@H](NC(=O)c1ccc2c(c1)OCCN2Cc1ccc(-c2ccccc2C(=O)O)c(F)c1)c1ccc2ccccc2c1 [Example 163, (S)-2′-fluoro-4′-((7-((1-(naphthalene-2-yl)ethyl)carbamoyl)-2H-benzo[b][1,4]oxazine-4(3H)-yl)methyl)-[1,1′-biphenyl]-2-carboxylic acid]",+++
13,"Cc1ccc([C@H](C)NC(=O)c2ccc3c(c2)OCCN3Cc2ccc(-c3ccccc3C(=O)O)c(F)c2)cc1F [Example 164, (S)-2′-fluoro-4′-((7-(((3-fluoro-4-methylphenyl)ethyl)carbamoyl)-2H-benzo[b][1,4]oxazine-4(3)-yl)methyl)-[1,1′-biphenyl]-2-carboxylic acid]",+++

# Now from value to molecule:
row,Binding assay (1 μLM),SMILES
1,++,"C[C@H](NC(=O)c1ccc2c(c1)OCCN2Cc1ccccc1-c1ccc(C(=O)O)cc1)c1ccccc1 [Example 142, (S)-2′-((7-((1-phenylethyl)carbamoyl)-2H-benzo[b][1,4]oxazine-4(3H)-yl)methyl)-[1,1′-biphenyl]-4-carboxylic acid]"
2,++,"C[C@H](NC(=O)c1ccc2c(c1)OCCN2Cc1ccccc1-c1ccc(C(N)=O)cc1)c1ccccc1 [Example 143, (S)-4-((4′-carbamoyl-[1,1′-biphenyl]-2-yl)methyl)-N-(1-phenylethyl)-3,4-dihydro-2H-benzo[b][1,4]oxazine-7-carboxamide]"
3,+,"C[C@H](NC(=O)c1ccc2c(c1)OCCN2Cc1ccccc1-c1ccc(C(=O)O)cc1)c1ccc(C#N)cc1 [Example 144, (S)-2′-((7-((1-(4-cyanophenyl)ethyl)carbamoyl)-2H-benzo[b][1,4]oxazine-4(3H)-yl)methyl)-[1,1′-biphenyl]-4-carboxylic acid]"
4,+++,"C[C@H](NC(=O)c1ccc2c(c1)OCCN2Cc1ccccc1-c1ccc(C(=O)O)cc1)c1ccc2ccccc2c1 [Example 147, (S)-2′-((7-((1-(naphthalene-2-yl)ethyl)carbamoyl)-2H-benzo[b][1,4]oxazine-4(3H)-yl)methyl)-[1,1′-biphenyl]-4-carboxylic acid]"
5,++,"Cc1ccc([C@H](C)NC(=O)c2ccc3c(c2)OCCN3Cc2ccccc2-c2ccc(C(N)=O)cc2)cc1F [Example 148, (S)-4-((4′-carbamoyl-[1,1′-biphenyl]-2-yl)methyl)-N-(1-(3-fluoro-4-methylphenyl)ethyl)-3,4-dihydro-2H-benzo[b][1,4]oxazine-7-carboxamide]"
6,+,"C[C@H](NC(=O)c1ccc2c(c1)OCCN2Cc1ccccc1-c1ccc(C(N)=O)cc1)c1ccc(C#N)cc1 [Example 149, (S)-4-((4′-carbamoyl-[1,1′-biphenyl]-2-yl)methyl)-N-(1-(4-cyanophenyl)ethyl)-3,4-dihydro-2H-benzo[b][1,4]oxazine-7-carboxamide]"
7,++,"C[C@H](NC(=O)c1ccc2c(c1)OCCN2Cc1ccccc1-c1ccc(C(N)=O)cc1)c1ccc([N+](=O)[O-])cc1 [Example 150, (S)-4-((4′-carbamoyl-[1,1′-biphenyl]-2-yl)methyl)-N-(1-(4-nitrophenyl)ethyl)-3,4-dihydro-2H-benzo[b][1,4]oxazine-7-carboxamide]"
8,+++,"C[C@H](NC(=O)c1ccc2c(c1)OCCN2Cc1ccccc1-c1ccc(C(N)=O)cc1)c1ccc2ccccc2c1 [Example 151, (S)-4-((4′-carbamoyl-[1,1′-biphenyl]-2-yl)methyl)-N-(1-(naphthalene-2-yl)ethyl)-3,4-dihydro-2H-benzo[b][1,4]oxazine-7-carboxamide]"
9,++,"C[C@H](NC(=O)c1ccc2c(c1)CCCN2Cc1ccccc1-c1ccc(C(=O)O)cc1)c1ccccc1 [Example 152, (S)-2′-((6-((1-phenylethyl)carbamoyl)-3,4-dihydroquinoline-1 (2H)-yl)methyl)-[1,1′-biphenyl]-4-carboxylic acid]"
10,++,"C[C@H](NC(=O)c1ccc2c(c1)CCCN2Cc1ccccc1-c1ccc(C(N)=O)cc1)c1ccccc1 [Example 153, (S)-1-((4′-carbamoyl-[1,1′-biphenyl]-2-yl)methyl)-N-(1-phenylethyl)-1,2,3,4-tetrahydroquinolin-6-carboxamide]"
